This is an account of results in US20240269144A1, “METHODS AND KITS FOR THE DETECTION OF MALIGNANCIES” (H. LEE MOFFITT CANCER CENTER AND RESEARCH INSTITUTE, INC., priority 2021, published 2024).

Like-named read-outs stand apart in the source and are kept apart here.

For one data set, the system named is malignant T cells. The data set is described as follows: EVOS drug assay (Cytolight Rapid Green / Cytox Red) on malignant T cells. In kind it is cell-based. Here is the method:
FIGS. 9A, 9B, 9C, and 9D show the effects various anti-cancer agents on malignant T cells. Cells are stained green with the Cytolight Rapid Green Dye—freely pass thru the membrane, however, once inside the dye is transformed into cell-impermeant probe transferred to daughter cells. Once the cells have been stained the dye is removed. Stains live cells. Then the Cytox Red is added and left in the media. Cytox Red moves inside the cells when the cell membrane is compromised. Assays were read at 0, 6, 12, 18 and 24 hrs. Each timepoint is analyzed separately for the designated concentration of Palbociclib (CDK4/6 inhibitor)(9A), Omacetaxine mepesuccinate (HHT)(9B), CX5461 (rRNA synthesis inhibitor)(9C), or BTZO-1 (MIF inhibitor)(9D).
To see the effect of various inhibitors on malignant T cells, we an EVOS drug assay (FIG. 9) measuring varying concentrations and time points for Palbociclib (CDK4/6 inhibitor)(FIG. 9A), Omacetaxine mepesuccinate (HHT)(FIG. 9B), CX5461 (rRNA synthesis inhibitor)(FIG. 9C), and BTZO-1 (MIF inhibitor)(FIG. 9D). By 12 hours, killing of malignant T cells was observed reaching a maximum for all drugs by […].

The target in a further data set is MYC (Homo sapiens, UniProt P01106). As to conditions: cited from earlier work.
MYC, sequence (P01106 whole entry, species assumed): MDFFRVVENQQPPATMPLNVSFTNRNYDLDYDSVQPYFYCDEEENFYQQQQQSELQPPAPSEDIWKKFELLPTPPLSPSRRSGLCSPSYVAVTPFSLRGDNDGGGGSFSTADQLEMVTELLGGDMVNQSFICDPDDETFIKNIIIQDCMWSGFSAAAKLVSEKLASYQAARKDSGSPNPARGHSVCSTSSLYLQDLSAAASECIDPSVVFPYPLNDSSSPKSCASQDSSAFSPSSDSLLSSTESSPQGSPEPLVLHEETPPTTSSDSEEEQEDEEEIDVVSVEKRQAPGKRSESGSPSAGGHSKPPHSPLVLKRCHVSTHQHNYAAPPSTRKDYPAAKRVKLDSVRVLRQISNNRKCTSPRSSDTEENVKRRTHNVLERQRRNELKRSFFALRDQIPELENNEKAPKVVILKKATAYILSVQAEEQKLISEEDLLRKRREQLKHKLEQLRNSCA
Data set [1] has as its system T-cell lymphoma lines Myla (MF), HH (MF—leukemic phase), Hu78 (SS).
Data set [2] has the same test system. The data set is described as follows: OXPHOS inhibitor apoptosis assay (Annexin V/PI), T-cell lymphoma cell lines. In kind it is cell-based.
The subject of data set [3] is acute myeloid leukemia and mantle cell lymphoma tumor cells. As to conditions: pre-clinical models of acute myeloid leukemia and mantle cell lymphoma; cited from earlier work.
The test system of a further data set is CTCL. Conditions: MAVORIC trial, cited from earlier work.
Where [4] appears, read: malignant T cells, at maximum killing.
[5] abbreviates: in vitro pharmacologic studies, CTCL cell lines.

In the case of `O=c1nc(-c2ccccn2)sc2ccccc12` [BTZO-1], the “target cells remaining viable after treatment” value (“target cells remaining viable” for short) in the data set with malignant T cells was found to be 50%.
For `Cc1cnc(CNC(=O)c2c(=O)c3ccc(N4CCCN(C)CC4)nc3n3c2sc2ccccc23)cn1` [CX5461], the “target cells remaining viable” value in the data set with malignant T cells (setting [4]) is 60-70%.
In the case of `Cn1nc(C(F)(F)F)cc1-c1ccc(OCc2ccc(Cl)cc2)c(-c2ccc(Cl)c(C(F)(F)F)c2)c1O` [MYCi975], at MYC, the “preclinical in-vivo activity against MYC” value is “potent preclinical in-vivo activity against MYC”. Also, the “sensitivity to MYCi975 as assessed by cell proliferation, cell viability and cytotoxicity (MTS assay)” value in data set [1] is “low micromolar sensitivity”. For the same molecule, in data set [1] (setting [5]), the “anti-tumor activity in vitro (MYC inhibitor)” value is recorded as “potent anti-tumor activity”.
Consider `Cc1nc(-c2nc(-c3ccc(OC(F)(F)F)cc3)no2)nn1Cc1cccc(N2CCC(S(C)(=O)=O)CC2)c1` [IACS-010759], for which the “sensitivity to IACS-010759 as assessed by apoptosis” value in data set [2] (Myla, HH, Hu78, particularly for Myla, 8 nM, 5 days, Annexin V+PI+) was “low nanomolar sensitivity”. In addition, the “anti-tumor activity in vitro (OXPHOS inhibitor)” value in data set [2] (setting [5]) is given as “potent anti-tumor activity”. Also, the “effect of OXPHOS inhibition on tumor cells” value in data set [3] is “inhibition of tumor cell proliferation and induction of apoptosis”.
Consider `COC(=O)C[C@](O)(CCCC(C)(C)O)C(=O)O[C@@H]1C(OC)=C[C@]23CCCN2CCc2cc4c(cc2[C@H]13)OCO4` [HHT, Omacetaxine mepesuccinate], for which, in the data set with malignant T cells (setting [4]), the “target cells remaining viable” value is listed as 50%.
Take `CC(=O)c1c(C)c2cnc(Nc3ccc(N4CCNCC4)cn3)nc2n(C2CCCC2)c1=O` [Palbociclib]: in the data set on malignant T cells (setting [4]), the “target cells remaining viable” value was found to be 50%.

B1: mogamulizumab: anti-CCR4, FDA approved breakthrough therapy for CTCL (antibody, chains of the INN, looked up, V domains shown)
VH: EVQLVESGGDLVQPGRSLRLSCAASGFIFSNYGMSWVRQAPGKGLEWVATISSASTYSYYPDSVKGRFTISRDNAKNSLYLQMNSLRVEDTALYYCGRHSDGNFAFGYWGQGTLVTVSS
VL: DVLMTQSPLSLPVTPGEPASISCRSSRNIVHINGDTYLEWYLQKPGQSPQLLIYKVSNRFSGVPDRFSGSGSGTDFTLKISRVEAEDVGVYYCFQGSLLPWTFGQGTKVEIK
Consider B1, for which, in the data set on CTCL (blood compartment), the “responses in blood, % of patients” value is 49.2%. For the same molecule, the “responses in skin, % of patients” value in the data set on CTCL (skin compartment) is reported as 27.4%. Also, the ORR with CTCL (mogamulizumab monotherapy, at ≥4 months (b5), at 4 months) was 25.3%. Besides, the “median PFS” value in the data set with CTCL (mogamulizumab monotherapy) is listed as 7.8 months.
